Experimental data: patent US20180311342A1, “IMMUNOSTIMULATING AGENT” (AJINOMOTO CO., INC., priority 2017, published 2018)
Structures can show the parent of a compound that is named as a salt.

Key:
Assay type in all cases: in vivo, BALB/c mice
[1] = system: anti-OVA-specific IgG2a subclass antibody; assay: Adjuvant activity test: anti-OVA-specific IgG2a subclass antibody in serum of OVA-immunized mice (ELISA); details: after secondary immunization, serum 2 weeks later; OVA 5 μg + compound 0.256 μmol in 5% αCD-added saline (Addavax mixed with saline at 1:1), dorsal-subcutaneous; compared to OVA single administration group
Procedure: 8-Week-old female BALB/c mice were divided into groups (N=6), and each group was primarily immunized by dorsal-subcutaneous administration of (1) ovalbumin (OVA) (5 μg) dissolved in saline as an antigen (OVA single administration group), (2) OVA 5 μg and Addavax™ (mixed with saline at 1:1) dissolved in saline (Addavax™ administration group) as positive control adjuvant, (3) OVA 5 μg and SZ137 0.256 μmol dissolved or dispersed in 5% α-cyclodextrin (hereinafter to be simply referred to as αCD)-added saline (SZ137 administration group), (4) OVA (5 μg) and SZ138 (0.256 μmol) dissolved or dispersed in 5% αCD-added saline (SZ138 administration group), (5) OVA (5 μg) and SZ142 (0.256 μmol) dissolved or dispersed in 5% αCD-added saline (SZ142 administration group), (6) OVA (5 μg) and SZ144 (0.256 μmol) dissolved or dispersed in 5% αCD-added saline (SZ144 administration group), (7) OVA (5 μg) and SZ145 (0.256 μmol) dissolved or dispersed in 5% αCD-added saline (SZ145 administration group), (8) OVA (5 μg) and SZ146 (0.256 μmol) dissolved or dispersed in 5% αCD-added saline (SZ146 administration group), (9) OVA (5 μg) and SZ147 (0.256 μmol) dissolved or dispersed in 5% αCD-added saline (SZ147 administration group), (10) OVA (5 μg) and SZ148 (0.256 μmol) dissolved or dispersed in 5% αCD-added saline (SZ148 administration group), each per mouse. Two week later, the secondary immunization was carried out by dorsal-subcutaneous administration of solutions or dispersions similar to those of the above-mentioned (1)-(10) again. Two weeks from the secondary immunization, the whole blood was extracted under anesthesia, and the obtained serum sample was measured for anti-OVA-specific IgG1 subclass antibody, anti-OVA-specific IgG2a subclass antibody, and anti-OVA-specific IgE antibody.
The measurement method of the anti-OVA-specific IgG1 subclass antibody and anti-OVA-specific IgG2a subclass antibody in Experimental Example 1 and the following Experimental Examples 2-10 is as follows.
To a 96 well plate was added 5 μg/ml OVA at 100 µl/well, and the mixture was incubated at 4° C. overnight. After incubation, the mixture was washed three times with 200 μl of PBS-T (PBS (phosphate buffered saline)+0.05% (v/v) Tween 20) per well, and blocked with 100 μl of 5% FCS (fetal calf serum)/PBS solution per well at room temperature for 1-2 hr. Thereafter, the mixture was washed three times with PBS-T (200 μl/well), a diluted serum sample (100 l/well) or the same amount of 5% FCS/PBS solution as a control was added, and the mixture was incubated at 37° C. for 1 hr. To calculate concentration of the antibody, the standard of an anti-OVA-specific IgG1 subclass antibody diluted with 2% FCS/PBS solution was added at 100 ng/ml, 50 ng/ml, 25 ng/ml, 12.5 ng/ml, 6.25 ng/ml, 3.125 ng/ml, 1.56 ng/ml, 0.781 ng/ml, 0.391 ng/ml, 0.195 ng/ml, 0.098 ng/ml, 0 ng/ml, per 1 well. When an anti-OVA-specific IgG2a subclass antibody was measured, the standard of an anti-OVA-specific IgG2a subclass antibody was added at 50 ng/ml, 25 ng/ml, 12.5 ng/ml, 6.25 ng/ml, 3.125 ng/ml, 1.56 ng/ml, 0.781 ng/ml, 0.391 ng/ml, 0.195 ng/ml, 0.098 ng/ml, 0.049 ng/ml, 0 ng/ml, per 1 well. Thereafter, similar to the samples, the mixture was washed five times with PBS-T (200 μl/well), a diluted biotinylated anti-mouse IgG1 antibody and IgG2a antibody were added (100 μl/well), and the mixture was incubated at 37° C. for 45 min. Thereafter, the mixture was washed five times with PBS-T (200 μl/well), a diluted anti-biotin-HRP antibody was added (100 μl/well), and the mixture was incubated at 37° C. for another 30 min. Thereafter, the mixture was washed five times with PBS-T (200 μl/well), TMB substrate solution was added (100 μl/well), and the mixture was incubated at room temperature for 10-15 min. Thereafter, a reaction quenching liquid (2N sulfuric acid solution) was added (50 l/well) to discontinue a color developing reaction, and the absorbance (OD Value=450 nm) was measured by a microplate reader. […]

[2] = system: anti-OVA-specific IgG1 subclass antibody; assay: Adjuvant activity test: anti-OVA-specific IgG1 subclass antibody in serum of OVA-immunized mice (ELISA); details: after primary immunization, serum 2 weeks later; OVA 5 μg + compound 0.256 μmol in 5% αCD-added saline (Addavax mixed with saline at 1:1), dorsal-subcutaneous; compared to OVA single administration group
[3] = system: anti-OVA-specific IgG2a subclass antibody; assay: Adjuvant activity test: anti-OVA-specific IgG2a subclass antibody in serum of OVA-immunized mice (ELISA); details: after primary immunization, serum 2 weeks later; OVA 5 μg + compound 0.256 μmol in 5% αCD-added saline (Addavax mixed with saline at 1:1), dorsal-subcutaneous; compared to OVA single administration group

Compound | anti-OVA-specific IgG2a subclass antibody production [1] | anti-OVA-specific IgG1 subclass antibody production [2] | anti-OVA-specific IgG2a subclass antibody production [3]
CCCCCCCCCCCCCCCCNC(=O)NCCCCNC(=N)N.Cl [SZ190, 1-(4-guanidinobutyl)-3-hexadecyl-urea hydrochloride] | showed a tendency to increase | a tendency toward increase was found | a tendency toward increase was found
CCCCCCCCCCCCCCCCCCCCCC(=O)N[C@@H](CC(C)C)C(=O)NCCCCCCCCCCCC [SZ197, N-[(1S)-1-(dodecylcarbamoyl)-3-methyl-butyl]docosanamide] | tended to increase | tended to increase | tended to increase
CCCCCCCCCCCCCCCCCC(=O)NCC(C)(C)C(=O)NCCCCCCCCCCCC [SZ204, N-[3-(dodecylamino)-2,2-dimethyl-3-oxo-propyl]octadecanamide] | tended to increase | tended to increase | tended to increase
CCCCCCCCCCCCCCCCCCCC(=O)N[C@@H](CCCNC(=N)N)C(=O)NCCCCCCCC.Cl [SZ183, N-[(1S)-4-guanidino-1-(octylcarbamoyl)butyl]icosanamide hydrochloride] | significant enhancement | significant enhancement | significant enhancement
CCCCCCCCCCCCNC(=O)[C@H](CCCNC(=N)N)N(CCCCCCC)CCCCCCC [SZ207, (2S)-2-(diheptylamino)-N-dodecyl-5-guanidino-pentanamide dihydrochloride] | significant enhancement | tended to increase | tended to increase
CCCCCCCCCCCCCCCCCC(=O)N[C@@H](CCCCN)C(=O)NCCCCCCCCCCCC.Cl [SZ185, N-[(1S)-5-amino-1-(dodecylcarbamoyl)pentyl]octadecanamide hydrochloride] | significant enhancement | significant enhancement | significant enhancement
CCCCCCCCCCCCNC(=O)[C@H](CCCNC(=N)N)NC(=O)OCCCCCCCCCCCC.Cl [SZ187, dodecyl N-[(1S)-1-(dodecylcarbamoyl)-4-guanidino-butyl]carbamate hydrochloride] | significant enhancement | significant enhancement | significant enhancement
CCCCCCCCCCCCCCCCNC(=O)N[C@@H](CCCCN)C(=O)NCCCCCCCCCCCC.Cl [SZ214, (2S)-6-amino-N-dodecyl-2-(hexadecylcarbamoylamino)hexanamide hydrochloride] | significant enhancement | significant enhancement | significant enhancement
CCCCCCCCCCCCCCCCCC(=O)N[C@@H](CCCCNC(=N)N)C(=O)NCCCCCCCCCCCC.Cl [SZ205, N-[(1S)-1-(dodecylcarbamoyl)-5-guanidino-pentyl]octadecanamide hydrochloride] | significant enhancement | significant enhancement | significant enhancement
CCCCCCCCCCCCCCCCNC(=O)N[C@@H](CCCNC(=N)N)C(=O)NCCCCCCCC.Cl [SZ210, (2S)-5-guanidino-2-(hexadecylcarbamoylamino)-N-octyl-pentanamide hydrochloride] | significant enhancement | significant enhancement | significant enhancement
CCCCCCCCCCCCCCCCOC(=O)N[C@@H](CCCCN)C(=O)NCCCCCCCCCCCC.Cl [SZ189, hexadecyl N-[(1S)-5-amino-1-(dodecylcarbamoyl)pentyl]carbamate hydrochloride] | significant enhancement | a tendency toward increase was found | a tendency toward increase was found
CCCCCCCCCCCCCCCC(=O)N[C@H](CCCCN)C(=O)NCCCCCCCCCCCC.Cl [SZ194, N-[(1R)-5-amino-1-(dodecylcarbamoyl)pentyl]hexadecanamide hydrochloride] | showed a tendency to increase | tended to increase | Significant enhancement
CCCCCCCCCCCCCCCCCCCC(=O)N[C@@H](CCCNC(=N)N)C(=O)NCCCCCCCCCCCC.Cl [SZ180, N-[(1S)-1-(dodecylcarbamoyl)-4-guanidino-butyl]icosanamide hydrochloride] | significant enhancement | significant enhancement | significant enhancement
CCCCCCCCCCCCCCCCCC(=O)N[C@@H](CCCCN)C(=O)NCCCCCCCC.Cl [SZ184, N-[(1S)-5-amino-1-(octylcarbamoyl)pentyl]octadecanamide hydrochloride] | showed a tendency to increase | a tendency toward increase was found | a tendency toward increase was found
CCCCCCCCCCCCCCCC(=O)N[C@@H](CC(C)C)C(=O)NCCCCCCCC [SZ199, N-[(1S)-3-methyl-1-(octylcarbamoyl)butyl]hexadecanamide] | tended to increase | significant enhancement | significant enhancement
CCCCCCCCCCCCCCCCNC(=O)N[C@@H](CC(C)C)C(=O)NCCCCCCCC [SZ201, (2S)-2-(hexadecylcarbamoylamino)-4-methyl-N-octyl-pentanamide] | tended to increase | tended to increase | tended to increase
CCCCCCCCCCCCCCCCCCCCCC(=O)N[C@@H](CC(C)C)C(=O)NCCCCCCCC [SZ198, N-[(1S)-3-methyl-1-(octylcarbamoyl)butyl]docosanamide] | tended to increase | tended to increase | tended to increase
